Data from PMC12670405, “Second-Generation AURKA-Targeting PROTACs: Structural Optimization toward in Vivo Degradation in Neuroblastoma” (Journal of Medicinal Chemistry, 2025).

Key:
Experiment in all cases: KINOMEscan scanMAX
Type in all cases: binding
Conditions in all cases: read-out: Percent Control
MKNK1 = biological target: T1, MKNK1 (Homo sapiens, UniProt Q9BUB5)
T1 construct: purchased Eurofins Discovery (DiscoverX KINOMEscan scanMAX)
Protocol: (§1) The kinome-wide binding assay was performed by Eurofins Discovery using the scanMAX screening platform. More information can be found on the Eurofins Discovery Web site.

TGFBR2 = biological target: T2, TGFBR2 (Homo sapiens, UniProt P37173)
T2 construct: purchased Eurofins Discovery (DiscoverX KINOMEscan scanMAX)
Protocol: as §1

PIK3CB = biological target: T3, PIK3CB (Homo sapiens, UniProt P42338)
T3 construct: purchased Eurofins Discovery (DiscoverX KINOMEscan scanMAX)
T3 sequence (P42338 whole entry): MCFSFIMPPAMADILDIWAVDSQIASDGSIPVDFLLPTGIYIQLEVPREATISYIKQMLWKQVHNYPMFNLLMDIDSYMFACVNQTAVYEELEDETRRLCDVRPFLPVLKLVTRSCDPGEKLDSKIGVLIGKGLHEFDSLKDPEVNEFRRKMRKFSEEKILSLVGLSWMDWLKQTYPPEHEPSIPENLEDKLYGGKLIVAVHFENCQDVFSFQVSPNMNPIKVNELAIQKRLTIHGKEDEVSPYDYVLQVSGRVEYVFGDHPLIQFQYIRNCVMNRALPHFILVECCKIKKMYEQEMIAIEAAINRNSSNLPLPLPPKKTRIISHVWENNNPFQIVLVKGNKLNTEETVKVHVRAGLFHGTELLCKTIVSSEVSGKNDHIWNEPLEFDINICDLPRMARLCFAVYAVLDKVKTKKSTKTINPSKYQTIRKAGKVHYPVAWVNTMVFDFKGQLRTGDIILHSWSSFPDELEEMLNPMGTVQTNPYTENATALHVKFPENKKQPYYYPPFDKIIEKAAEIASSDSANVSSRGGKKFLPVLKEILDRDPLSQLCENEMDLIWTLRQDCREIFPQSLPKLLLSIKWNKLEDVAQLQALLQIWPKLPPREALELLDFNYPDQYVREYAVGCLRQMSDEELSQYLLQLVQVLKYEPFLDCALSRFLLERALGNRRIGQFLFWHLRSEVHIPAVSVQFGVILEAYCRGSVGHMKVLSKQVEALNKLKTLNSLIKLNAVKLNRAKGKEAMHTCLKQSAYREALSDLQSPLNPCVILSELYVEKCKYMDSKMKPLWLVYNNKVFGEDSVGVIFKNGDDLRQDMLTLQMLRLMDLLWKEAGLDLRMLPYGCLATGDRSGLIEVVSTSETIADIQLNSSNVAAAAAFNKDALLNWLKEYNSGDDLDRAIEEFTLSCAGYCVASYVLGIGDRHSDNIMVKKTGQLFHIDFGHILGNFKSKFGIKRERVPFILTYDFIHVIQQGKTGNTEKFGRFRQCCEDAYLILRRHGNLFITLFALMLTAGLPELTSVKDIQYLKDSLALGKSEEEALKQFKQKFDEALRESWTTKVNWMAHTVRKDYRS
Protocol: as §1

[1] = biological target: T4, ABL1(F317L)-phosphorylated (Homo sapiens, UniProt P00519, F317L)
T4 construct: purchased Eurofins Discovery (DiscoverX KINOMEscan scanMAX)
Protocol: as §1

SRPK1 = biological target: T5, SRPK1 (Homo sapiens, UniProt Q96SB4)
T5 construct: purchased Eurofins Discovery (DiscoverX KINOMEscan scanMAX)
Protocol: as §1

CDC2L5 = biological target: T6, CDC2L5 (Homo sapiens, UniProt Q14004)
T6 construct: purchased Eurofins Discovery (DiscoverX KINOMEscan scanMAX)
Protocol: as §1

MAP3K4 = biological target: T7, MAP3K4 (Homo sapiens, UniProt Q9Y6R4)
T7 construct: purchased Eurofins Discovery (DiscoverX KINOMEscan scanMAX)
Protocol: as §1

[2] = biological target: T8, RPS6KA4(Kin.Dom.1-N-terminal) (Homo sapiens, UniProt O75676)
T8 construct: RPS6KA4(Kin.Dom.1-N-terminal); purchased Eurofins Discovery (DiscoverX KINOMEscan scanMAX)
Protocol: as §1

DMPK = biological target: T9, DMPK (Homo sapiens, UniProt Q09013)
T9 construct: purchased Eurofins Discovery (DiscoverX KINOMEscan scanMAX)
Protocol: as §1

ALK(C1156Y) = biological target: T10, ALK(C1156Y) (Homo sapiens, UniProt Q9UM73, C1156Y)
T10 construct: purchased Eurofins Discovery (DiscoverX KINOMEscan scanMAX)
Protocol: as §1

TSSK1B = biological target: T11, TSSK1B (Homo sapiens, UniProt Q9BXA7)
T11 construct: purchased Eurofins Discovery (DiscoverX KINOMEscan scanMAX)
Protocol: as §1

DDR2 = biological target: T12, DDR2 (Homo sapiens, UniProt Q16832)
T12 construct: purchased Eurofins Discovery (DiscoverX KINOMEscan scanMAX)
Protocol: as §1

DRAK2 = biological target: T13, DRAK2 (Homo sapiens, UniProt O94768)
T13 construct: purchased Eurofins Discovery (DiscoverX KINOMEscan scanMAX)
Protocol: as §1

DYRK2 = biological target: T14, DYRK2 (Homo sapiens, UniProt Q92630)
T14 construct: purchased Eurofins Discovery (DiscoverX KINOMEscan scanMAX)
Protocol: as §1

FYN = biological target: T15, FYN (Homo sapiens, UniProt P06241)
T15 construct: purchased Eurofins Discovery (DiscoverX KINOMEscan scanMAX)
Protocol: as §1

FGFR4 = biological target: T16, FGFR4 (Homo sapiens, UniProt P22455)
T16 construct: purchased Eurofins Discovery (DiscoverX KINOMEscan scanMAX)
T16 sequence (P22455 22-802): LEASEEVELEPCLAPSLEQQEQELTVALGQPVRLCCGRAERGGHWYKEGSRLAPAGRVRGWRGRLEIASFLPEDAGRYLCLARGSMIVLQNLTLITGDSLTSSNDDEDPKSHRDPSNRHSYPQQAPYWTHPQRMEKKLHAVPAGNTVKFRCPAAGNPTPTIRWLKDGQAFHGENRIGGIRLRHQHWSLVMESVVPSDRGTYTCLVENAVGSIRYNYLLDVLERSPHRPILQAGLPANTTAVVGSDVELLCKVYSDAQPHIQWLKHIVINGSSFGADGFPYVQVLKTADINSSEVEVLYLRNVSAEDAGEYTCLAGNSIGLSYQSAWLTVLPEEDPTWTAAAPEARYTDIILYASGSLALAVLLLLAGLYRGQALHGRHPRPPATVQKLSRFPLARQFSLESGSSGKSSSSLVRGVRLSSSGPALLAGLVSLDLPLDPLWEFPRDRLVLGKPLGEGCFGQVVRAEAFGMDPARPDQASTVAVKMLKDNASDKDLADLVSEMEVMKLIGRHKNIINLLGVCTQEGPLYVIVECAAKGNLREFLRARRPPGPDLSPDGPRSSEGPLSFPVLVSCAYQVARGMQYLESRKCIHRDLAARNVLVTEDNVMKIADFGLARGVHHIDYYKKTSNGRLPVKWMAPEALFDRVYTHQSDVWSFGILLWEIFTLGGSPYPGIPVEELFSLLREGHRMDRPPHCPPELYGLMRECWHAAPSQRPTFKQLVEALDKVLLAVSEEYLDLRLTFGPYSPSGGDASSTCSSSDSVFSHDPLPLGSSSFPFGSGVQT
Protocol: as §1

AXL = biological target: T17, AXL (Homo sapiens, UniProt P30530)
T17 construct: purchased Eurofins Discovery (DiscoverX KINOMEscan scanMAX)
T17 sequence (P30530 26-894): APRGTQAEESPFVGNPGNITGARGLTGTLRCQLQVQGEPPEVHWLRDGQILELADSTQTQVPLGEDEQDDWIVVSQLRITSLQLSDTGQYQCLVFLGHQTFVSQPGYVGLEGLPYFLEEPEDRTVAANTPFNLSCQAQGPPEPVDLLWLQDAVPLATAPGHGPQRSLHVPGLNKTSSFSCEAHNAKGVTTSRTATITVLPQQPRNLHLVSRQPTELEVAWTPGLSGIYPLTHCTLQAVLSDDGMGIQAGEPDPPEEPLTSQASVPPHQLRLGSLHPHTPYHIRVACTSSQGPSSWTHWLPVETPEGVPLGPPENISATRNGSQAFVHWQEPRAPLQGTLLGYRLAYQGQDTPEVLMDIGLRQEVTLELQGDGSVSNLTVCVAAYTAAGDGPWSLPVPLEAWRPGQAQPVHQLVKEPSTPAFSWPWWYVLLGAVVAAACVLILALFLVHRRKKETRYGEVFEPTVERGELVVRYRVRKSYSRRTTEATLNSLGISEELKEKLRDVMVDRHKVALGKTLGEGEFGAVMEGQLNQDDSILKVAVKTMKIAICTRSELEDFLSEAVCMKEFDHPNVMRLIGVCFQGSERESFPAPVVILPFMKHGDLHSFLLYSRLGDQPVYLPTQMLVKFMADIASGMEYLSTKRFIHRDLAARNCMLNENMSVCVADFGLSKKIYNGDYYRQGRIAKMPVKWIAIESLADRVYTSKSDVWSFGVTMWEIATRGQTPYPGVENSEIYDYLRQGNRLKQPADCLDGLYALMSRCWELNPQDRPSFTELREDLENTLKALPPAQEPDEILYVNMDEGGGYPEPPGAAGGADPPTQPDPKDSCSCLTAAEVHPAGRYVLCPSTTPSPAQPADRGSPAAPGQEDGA
Protocol: as §1

WNK2 = biological target: T18, WNK2 (Homo sapiens, UniProt Q9Y3S1)
T18 construct: purchased Eurofins Discovery (DiscoverX KINOMEscan scanMAX)
Protocol: as §1

CDC2L2 = biological target: T19, CDC2L2 (Homo sapiens, UniProt Q9UQ88)
T19 construct: purchased Eurofins Discovery (DiscoverX KINOMEscan scanMAX)
T19 sequence (Q9UQ88 whole entry): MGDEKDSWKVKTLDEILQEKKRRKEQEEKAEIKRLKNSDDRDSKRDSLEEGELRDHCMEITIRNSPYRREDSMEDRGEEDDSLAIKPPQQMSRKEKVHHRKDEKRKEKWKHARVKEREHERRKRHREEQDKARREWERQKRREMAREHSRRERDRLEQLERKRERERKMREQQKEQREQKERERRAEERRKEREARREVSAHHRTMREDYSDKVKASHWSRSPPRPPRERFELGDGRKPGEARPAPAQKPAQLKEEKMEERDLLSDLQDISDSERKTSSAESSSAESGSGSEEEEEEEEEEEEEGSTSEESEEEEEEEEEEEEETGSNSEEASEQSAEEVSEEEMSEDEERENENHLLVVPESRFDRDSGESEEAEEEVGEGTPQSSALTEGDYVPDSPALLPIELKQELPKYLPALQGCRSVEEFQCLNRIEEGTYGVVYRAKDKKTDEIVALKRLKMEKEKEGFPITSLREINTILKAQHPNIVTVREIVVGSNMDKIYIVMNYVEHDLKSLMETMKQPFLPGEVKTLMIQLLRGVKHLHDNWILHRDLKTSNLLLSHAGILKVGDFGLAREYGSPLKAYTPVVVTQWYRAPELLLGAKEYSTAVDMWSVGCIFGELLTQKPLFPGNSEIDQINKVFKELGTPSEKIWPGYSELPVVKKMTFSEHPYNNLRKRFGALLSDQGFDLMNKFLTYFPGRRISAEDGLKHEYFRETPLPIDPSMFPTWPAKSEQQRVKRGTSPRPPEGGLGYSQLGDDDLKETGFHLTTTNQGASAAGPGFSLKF
Protocol: as §1

NEK3 = biological target: T20, NEK3 (Homo sapiens, UniProt P51956)
T20 construct: purchased Eurofins Discovery (DiscoverX KINOMEscan scanMAX)
T20 sequence (P51956 whole entry): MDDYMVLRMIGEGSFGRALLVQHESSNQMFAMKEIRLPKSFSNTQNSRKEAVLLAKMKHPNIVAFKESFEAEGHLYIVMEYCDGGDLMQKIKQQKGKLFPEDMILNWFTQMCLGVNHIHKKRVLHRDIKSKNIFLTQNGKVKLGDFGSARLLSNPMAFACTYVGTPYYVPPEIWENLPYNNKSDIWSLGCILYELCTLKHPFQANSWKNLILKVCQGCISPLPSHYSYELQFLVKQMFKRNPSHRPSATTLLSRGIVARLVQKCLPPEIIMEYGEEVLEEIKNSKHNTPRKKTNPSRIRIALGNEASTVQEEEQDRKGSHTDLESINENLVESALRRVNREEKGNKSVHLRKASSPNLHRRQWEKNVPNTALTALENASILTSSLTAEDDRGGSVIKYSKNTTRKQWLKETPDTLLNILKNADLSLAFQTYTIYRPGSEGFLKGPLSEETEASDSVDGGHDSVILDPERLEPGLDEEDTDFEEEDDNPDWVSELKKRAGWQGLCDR
Protocol: as §1

NDR1 = biological target: T21, NDR1 (Homo sapiens, UniProt Q15208)
T21 construct: purchased Eurofins Discovery (DiscoverX KINOMEscan scanMAX)
T21 sequence (Q15208 whole entry): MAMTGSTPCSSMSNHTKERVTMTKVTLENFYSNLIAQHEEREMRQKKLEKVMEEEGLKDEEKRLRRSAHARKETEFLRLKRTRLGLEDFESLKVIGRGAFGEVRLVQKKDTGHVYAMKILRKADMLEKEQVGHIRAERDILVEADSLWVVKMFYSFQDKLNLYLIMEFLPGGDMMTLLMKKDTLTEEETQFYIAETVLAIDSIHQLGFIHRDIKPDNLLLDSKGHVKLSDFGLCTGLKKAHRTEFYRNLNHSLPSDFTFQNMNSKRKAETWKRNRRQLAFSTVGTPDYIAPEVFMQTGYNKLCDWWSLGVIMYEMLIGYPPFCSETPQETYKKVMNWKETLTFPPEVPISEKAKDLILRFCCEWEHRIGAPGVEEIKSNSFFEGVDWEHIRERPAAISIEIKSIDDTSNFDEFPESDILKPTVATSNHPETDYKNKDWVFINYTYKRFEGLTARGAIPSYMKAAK
Protocol: as §1

PRKX = biological target: T22, PRKX (Homo sapiens, UniProt P51817)
T22 construct: purchased Eurofins Discovery (DiscoverX KINOMEscan scanMAX)
Protocol: as §1

PRKG2 = biological target: T23, PRKG2 (Homo sapiens, UniProt Q13237)
T23 construct: purchased Eurofins Discovery (DiscoverX KINOMEscan scanMAX)
Protocol: as §1

MINK = biological target: T24, MINK (Homo sapiens, UniProt Q8N4C8)
T24 construct: purchased Eurofins Discovery (DiscoverX KINOMEscan scanMAX)
Protocol: as §1

EPHB6 = biological target: T25, EPHB6 (Homo sapiens, UniProt O15197)
T25 construct: purchased Eurofins Discovery (DiscoverX KINOMEscan scanMAX)
Protocol: as §1

TXK = biological target: T26, TXK (Homo sapiens, UniProt P42681)
T26 construct: purchased Eurofins Discovery (DiscoverX KINOMEscan scanMAX)
Protocol: as §1

HIPK4 = biological target: T27, HIPK4 (Homo sapiens, UniProt Q8NE63)
T27 construct: purchased Eurofins Discovery (DiscoverX KINOMEscan scanMAX)
Protocol: as §1

ICK = biological target: T28, ICK (Homo sapiens, UniProt Q9UPZ9)
T28 construct: purchased Eurofins Discovery (DiscoverX KINOMEscan scanMAX)
Protocol: as §1

SLK = biological target: T29, SLK (Homo sapiens, UniProt Q9H2G2)
T29 construct: purchased Eurofins Discovery (DiscoverX KINOMEscan scanMAX)
Protocol: as §1

TRKC = biological target: T30, TRKC (Homo sapiens, UniProt Q16288)
T30 construct: purchased Eurofins Discovery (DiscoverX KINOMEscan scanMAX)
Protocol: as §1

PIM2 = biological target: T31, PIM2 (Homo sapiens, UniProt Q9P1W9)
T31 construct: purchased Eurofins Discovery (DiscoverX KINOMEscan scanMAX)
Protocol: as §1

EGFR(S752-I759del) = biological target: T32, EGFR(S752-I759del) (Homo sapiens, UniProt P00533, DEL752-759)
T32 construct: purchased Eurofins Discovery (DiscoverX KINOMEscan scanMAX)
Protocol: as §1

MYLK = biological target: T33, MYLK (Homo sapiens, UniProt Q15746)
T33 construct: purchased Eurofins Discovery (DiscoverX KINOMEscan scanMAX)
Protocol: as §1

MARK1 = biological target: T34, MARK1 (Homo sapiens, UniProt Q9P0L2)
T34 construct: purchased Eurofins Discovery (DiscoverX KINOMEscan scanMAX)
Protocol: as §1

T1 sequence (Q9BUB5 whole entry): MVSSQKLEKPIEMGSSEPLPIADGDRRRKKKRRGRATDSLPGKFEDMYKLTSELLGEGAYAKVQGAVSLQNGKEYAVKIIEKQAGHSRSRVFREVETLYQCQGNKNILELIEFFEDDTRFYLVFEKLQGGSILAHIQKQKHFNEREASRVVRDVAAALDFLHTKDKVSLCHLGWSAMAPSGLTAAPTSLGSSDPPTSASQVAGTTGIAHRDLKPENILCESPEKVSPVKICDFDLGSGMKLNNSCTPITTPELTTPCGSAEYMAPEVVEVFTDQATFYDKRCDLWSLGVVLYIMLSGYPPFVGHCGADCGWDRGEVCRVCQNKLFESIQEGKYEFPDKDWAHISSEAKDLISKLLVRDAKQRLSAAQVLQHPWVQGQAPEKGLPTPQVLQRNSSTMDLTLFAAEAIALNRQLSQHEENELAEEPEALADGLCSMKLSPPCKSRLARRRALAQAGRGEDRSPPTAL

Cc1cc(Nc2ccc(F)c(CC3(C(=O)N4CCC(F)(CN5CCN(c6ccc(N7CCC(=O)NC7=O)cn6)CC5)CC4)CCN(Cc4cccc(Cl)c4F)CC3)n2)n[nH]1 [SK5527]
remaining binding at 0.1 µM (MKNK1; 100 nM): 84%
remaining binding at 1 µM (MKNK1; 1000 nM): 92%
remaining binding at 0.1 µM (TGFBR2; 100 nM): 100%
remaining binding at 1 µM (TGFBR2; 1000 nM): 100%
remaining binding at 0.1 µM (PIK3CB; 100 nM): 78%
remaining binding at 1 µM (PIK3CB; 1000 nM): 95%
remaining binding at 0.1 µM ([1]; 100 nM): 92%
remaining binding at 1 µM ([1]; 1000 nM): 68%
remaining binding at 0.1 µM (SRPK1; 100 nM): 93%
remaining binding at 1 µM (SRPK1; 1000 nM): 100%
remaining binding at 0.1 µM (CDC2L5; 100 nM): 82%
remaining binding at 1 µM (CDC2L5; 1000 nM): 73%
remaining binding at 0.1 µM (MAP3K4; 100 nM): 72%
remaining binding at 1 µM (MAP3K4; 1000 nM): 87%
remaining binding at 0.1 µM ([2]; 100 nM): 90%
remaining binding at 1 µM ([2]; 1000 nM): 95%
remaining binding at 0.1 µM (DMPK; 100 nM): 88%
remaining binding at 1 µM (DMPK; 1000 nM): 90%
remaining binding at 0.1 µM (ALK(C1156Y); 100 nM): 87%
remaining binding at 1 µM (ALK(C1156Y); 1000 nM): 100%
remaining binding at 0.1 µM (TSSK1B; 100 nM): 100%
remaining binding at 1 µM (TSSK1B; 1000 nM): 100%
remaining binding at 0.1 µM (DDR2; 100 nM): 98%
remaining binding at 1 µM (DDR2; 1000 nM): 100%
remaining binding at 0.1 µM (DRAK2; 100 nM): 100%
remaining binding at 1 µM (DRAK2; 1000 nM): 100%
remaining binding at 0.1 µM (DYRK2; 100 nM): 100%
remaining binding at 1 µM (DYRK2; 1000 nM): 80%
remaining binding at 0.1 µM (FYN; 100 nM): 94%
remaining binding at 1 µM (FYN; 1000 nM): 71%
remaining binding at 0.1 µM (FGFR4; 100 nM): 89%
remaining binding at 1 µM (FGFR4; 1000 nM): 89%
remaining binding at 0.1 µM (AXL; 100 nM): 36%
remaining binding at 1 µM (AXL; 1000 nM): 3.3%
remaining binding at 0.1 µM (WNK2; 100 nM): 100%
remaining binding at 1 µM (WNK2; 1000 nM): 100%
remaining binding at 0.1 µM (CDC2L2; 100 nM): 99%
remaining binding at 1 µM (CDC2L2; 1000 nM): 98%
remaining binding at 0.1 µM (NEK3; 100 nM): 88%
remaining binding at 1 µM (NEK3; 1000 nM): 61%
remaining binding at 0.1 µM (NDR1; 100 nM): 98%
remaining binding at 1 µM (NDR1; 1000 nM): 82%
remaining binding at 0.1 µM (PRKX; 100 nM): 79%
remaining binding at 1 µM (PRKX; 1000 nM): 96%
remaining binding at 0.1 µM (PRKG2; 100 nM): 86%
remaining binding at 1 µM (PRKG2; 1000 nM): 78%
remaining binding at 0.1 µM (MINK; 100 nM): 98%
remaining binding at 1 µM (MINK; 1000 nM): 86%
remaining binding at 0.1 µM (EPHB6; 100 nM): 93%
remaining binding at 1 µM (EPHB6; 1000 nM): 85%
remaining binding at 0.1 µM (TXK; 100 nM): 75%
remaining binding at 1 µM (TXK; 1000 nM): 78%
remaining binding at 0.1 µM (HIPK4; 100 nM): 85%
remaining binding at 1 µM (HIPK4; 1000 nM): 81%
remaining binding at 0.1 µM (ICK; 100 nM): 92%
remaining binding at 1 µM (ICK; 1000 nM): 48%
remaining binding at 0.1 µM (SLK; 100 nM): 95%
remaining binding at 1 µM (SLK; 1000 nM): 100%
remaining binding at 0.1 µM (TRKC; 100 nM): 97%
remaining binding at 1 µM (TRKC; 1000 nM): 76%
remaining binding at 0.1 µM (PIM2; 100 nM): 60%
remaining binding at 1 µM (PIM2; 1000 nM): 71%
remaining binding at 0.1 µM (EGFR(S752-I759del); 100 nM): 98%
remaining binding at 1 µM (EGFR(S752-I759del); 1000 nM): 100%
remaining binding at 0.1 µM (MYLK; 100 nM): 76%
remaining binding at 1 µM (MYLK; 1000 nM): 47%
remaining binding at 0.1 µM (MARK1; 100 nM): 100%
remaining binding at 1 µM (MARK1; 1000 nM): 100%
